From US20020173468A1, “MODIFIED CYTOSTATIC AGENTS” (priority 1996, published 2002) come the findings set out here.

The structures appear in SMILES notation. “And” between values parts separate entries of the source, which are not always exact repeats. Identical values can stand only once.

The IC50 is the concentration at which inhibition is half-maximal.

For data set [1], the system named is large-cell human lung tumour xenograft LXFL 529. Kind of data set: In-vivo inhibition of tumour growth in the nude mouse model. As to conditions: for Relative tumour volume on day 21: control 1137; for Survival time: individual animals. More on the design: species or system athymic nude mice (NMRI nu/nu strain). From the text:
3. In-vivo Inhibition of Tumour Growth in the Nude Mouse Model
For all in-vivo experiments for investigation of the inhibition of tumour growth, athymic nude mice (NMRI nu/nu strain) were used. The selected large-cell lung carcinoma LXFL 529 was developed by serial passage in nude mice. The human origin of the tumour was confirmed by isoenzymatic and immunohistochemical methods.
The tumour was implanted subcutaneously in both flanks of nu/nu nude mice 6 to 8 weeks old. The treatment was started, depending on the doubling time, as soon as the tumours had reached a diameter of 5-7 mm. The mice were assigned to the treatment group and to the control group (5 mice per group with 8-10 assessable tumours) by randomization. The individual tumours of the control group all grew progressively.
The size of the tumours was measured in two dimensions by means of a slide gauge. The tumour volume, which correlated well with the cell count, was then used for all evaluations. The volume was calculated according to the formula “length×breadth×breadth/2” ([a×b^2]/2, a and b represent two diameters arranged at right angles).
The values of the relative tumour volume (RTV) were calculated for each individual tumour by dividing the tumour size on day X by the tumour size on day 0 (at the time of randomization). The mean values of the RTV were then used for further evaluation.
The inhibition of the increase in the tumour volume (tumour volume of the test group/control group, T/C, in per cent) was the final measured value.
The administration of the compounds was carried out intraperitoneally (i.p.) on days 1, 2 and 3 after randomization.

Data set [2] relates to SW 480 human colonic tumour cell line. The data set is described as follows: Growth inhibition test (MTT) for cytotoxic properties, SW 480. The class given is cell-based. As to conditions: SW 480 cells. The procedure: (§1) 1. Growth Inhibition Test for the Determination of Cytotoxic Properties
(§2) They were then trypsinized and taken up in RPMI plus 10% FCS to give a cell count of 50,000 cells/ml. 100 μl of cell suspension/well were added to a 96 microwell plate and incubated for 1 day at 37° C. in a CO2 incubator. A further 100 μl of RPMI medium and 1 μl of DMSO were then added with the test substances. The growth was checked after day 3 and day 6. To do this, 40 μl of MTT solution (3-(4,5-dimethylthiazol-2-yl)-2,5-diphenyl-tetrazolin bromide) were added to each microwell at a starting concentration of 5 mg/ml of H2O. Incubation was carried out at 37° C. for 5 hours in the CO2 incubator. The medium was then aspirated and 100 μl of i-propanol/well were added. After shaking for 30 min with 100 μl of H2O, the extinction was measured at 540 nm using a Titertek Multiskan MCC/340 (flow).
(§3) The cytotoxic action is indicated in Table 1 as an IC50 value in each case for the SW 480 and HT 29 and B16F10 cell lines: […]

For data set [3], the system named is HT 29 human colonic tumour cell line. Kind of data set: Growth inhibition test (MTT) for cytotoxic properties, HT 29. The class given is cell-based. As to conditions: HT 29 cells. The method, then: as §1, §2, §3
Data set [4] concerns B16F10 mouse melanoma cell line. Kind of data set: Growth inhibition test (MTT) for cytotoxic properties, B16F10. The conditions noted are these: B16F10 cells. In kind it is cell-based. The method, then:
as §1, §2, §3

Data set [5] concerns mouse bone marrow stem cells. Kind of data set: Inhibition of the CSF-induced proliferation of mouse bone marrow stem cells (colony formation). The class given is cell-based. As to conditions: recombinant murine GM-CSF, 7 days. The method, then: 2. Haematopoietic Activity of Conjugates in Comparison with the Basic Active Compound
Bone marrow cells were rinsed from mouse femurs. 10^5 cells were incubated in McCoy 5A medium (0.3% agar) together with recombinant murine GM-CSF (Genzyme; stem cell colony formation) and the substances (10^−4 to 100 μg/ml) at 37° C. and 7% CO2. 7 days later, the colonies ([…]50 cells) and clusters (17-50 cells) were counted.

[6] abbreviates: 6.25 mg/kg/day (MTD) i.p. days 1-3.

With `CC[C@@]1(OC(=O)[C@@H](NC(=O)[C@H](CCCCN)NC(=S)Nc2ccc(O)cc2)C(C)C)C(=O)OCc2c1cc1n(c2=O)Cc2cc3ccccc3nc2-1.Cl` [Example 4.4), 20-O-[N^α-(4-Hydroxy-phenylamino-thiocarbonyl)-lysyl-valyl]-camptothecin, hydrochloride], the “Relative body weight on day 21” value in data set [1] (3.125 mg/kg/day i.p. days 1-3) is 105.8 % of day 0; in data set [1] (setting [6]), 113.0 % of day 0. In addition, the “Relative tumour volume on day 21” value is 69.5 % of day 0 in data set [1] (3.125 mg/kg/day i.p. days 1-3) and 0.2 % of day 0 in data set [1] (setting [6]). Moreover, the Survival time in data set [1] (3.125 mg/kg/day i.p. days 1-3) is >43 >43 days; in data set [1] (6.25 mg/kg/day (MTD) i.p. days 1-3, hydrochloride), 7 days and > 43 days and >43 >43 days. In addition, the “Maximum tolerable dose (MTD)” value in data set [1] (i.p. on days 1, 2 and 3, nude mice) worked out at 6.25 mg/kg/day. The “Therapeutic efficacy against LXFL 529 xenograft (in words)” value in data set [1] (therapy at the MTD and at half the MTD) was “tumour remission”. The values for the concentration for half-maximal inhibition (IC50) in data set [2], in data set [3] and in data set [4] were 300 nM, 200 nM and 600 nM, respectively. For the same compound, the “IC50, inhibition of the CSF-induced proliferation of mouse bone marrow stem cells” value in data set [5] is 0.01 µg/mL.
